These results are taken from ChEMBL document CHEMBL4507268 (2021).

Holding throughout (conditions): Compound concentration 1000.0 nM
The target of test [1] is Serine/threonine-protein kinase SIK2 (Homo sapiens) (UniProt Q9H0K1).
Test [2] has as its target Hormonally up-regulated neu tumor-associated kinase (Homo sapiens) (UniProt P57058).
For test [3], the target named is Cyclin-dependent kinase 9 (Homo sapiens) (UniProt P50750).
Test [4] concerns the target Misshapen-like kinase 1 (Homo sapiens) (UniProt Q8N4C8).
Test [5] has as its target Serine/threonine-protein kinase OSR1 (Homo sapiens) (UniProt O95747).
Test [6] deals with RAF proto-oncogene serine/threonine-protein kinase (Homo sapiens) (UniProt P04049).
Test [7] addresses T1, Serine/threonine-protein kinase TAO2 (Homo sapiens) (UniProt Q9UL54).
T1 sequence (whole entry): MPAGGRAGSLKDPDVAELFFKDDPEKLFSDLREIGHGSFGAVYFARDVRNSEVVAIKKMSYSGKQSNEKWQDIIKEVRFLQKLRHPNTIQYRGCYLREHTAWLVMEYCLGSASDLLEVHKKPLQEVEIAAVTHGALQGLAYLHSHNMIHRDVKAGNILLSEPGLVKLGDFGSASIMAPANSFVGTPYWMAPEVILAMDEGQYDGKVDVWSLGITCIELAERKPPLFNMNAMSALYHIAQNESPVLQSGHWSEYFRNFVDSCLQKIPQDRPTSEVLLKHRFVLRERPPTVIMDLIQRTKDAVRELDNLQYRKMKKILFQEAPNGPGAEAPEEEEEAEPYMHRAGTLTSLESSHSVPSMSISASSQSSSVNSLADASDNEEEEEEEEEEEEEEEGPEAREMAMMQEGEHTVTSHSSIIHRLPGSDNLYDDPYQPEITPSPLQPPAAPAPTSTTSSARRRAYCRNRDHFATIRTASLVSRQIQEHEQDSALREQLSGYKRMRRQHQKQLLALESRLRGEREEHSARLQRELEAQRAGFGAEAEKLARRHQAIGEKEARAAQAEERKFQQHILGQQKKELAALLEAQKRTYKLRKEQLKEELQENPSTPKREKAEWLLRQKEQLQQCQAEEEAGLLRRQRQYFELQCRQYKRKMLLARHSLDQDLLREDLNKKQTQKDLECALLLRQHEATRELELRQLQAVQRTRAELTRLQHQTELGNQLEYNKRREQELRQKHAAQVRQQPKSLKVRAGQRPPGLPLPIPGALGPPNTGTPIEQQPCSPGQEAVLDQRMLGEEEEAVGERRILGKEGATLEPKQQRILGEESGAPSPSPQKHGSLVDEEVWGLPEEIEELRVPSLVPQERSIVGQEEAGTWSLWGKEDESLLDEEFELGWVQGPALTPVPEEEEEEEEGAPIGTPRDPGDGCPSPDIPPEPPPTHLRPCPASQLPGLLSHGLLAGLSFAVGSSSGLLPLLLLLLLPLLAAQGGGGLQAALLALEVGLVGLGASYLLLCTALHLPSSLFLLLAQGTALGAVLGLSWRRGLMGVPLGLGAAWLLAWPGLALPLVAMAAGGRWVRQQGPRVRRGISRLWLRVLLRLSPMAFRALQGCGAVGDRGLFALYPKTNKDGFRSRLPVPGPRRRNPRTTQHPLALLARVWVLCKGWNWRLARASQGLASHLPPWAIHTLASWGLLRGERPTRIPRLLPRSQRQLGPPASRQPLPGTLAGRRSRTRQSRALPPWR

Test [8] deals with Tyrosine-protein kinase ABL1 (Homo sapiens) (UniProt P00519).
For test [9], the target named is Myosin light chain kinase family member 4 (Homo sapiens) (UniProt Q86YV6).
In test [10] the test system is Fibroblast growth factor receptor 3 (Homo sapiens), P22607 [G697C].
Test [11] deals with T2, Serine/threonine-protein kinase D3 (Homo sapiens) (UniProt O94806).
T2 sequence (whole entry): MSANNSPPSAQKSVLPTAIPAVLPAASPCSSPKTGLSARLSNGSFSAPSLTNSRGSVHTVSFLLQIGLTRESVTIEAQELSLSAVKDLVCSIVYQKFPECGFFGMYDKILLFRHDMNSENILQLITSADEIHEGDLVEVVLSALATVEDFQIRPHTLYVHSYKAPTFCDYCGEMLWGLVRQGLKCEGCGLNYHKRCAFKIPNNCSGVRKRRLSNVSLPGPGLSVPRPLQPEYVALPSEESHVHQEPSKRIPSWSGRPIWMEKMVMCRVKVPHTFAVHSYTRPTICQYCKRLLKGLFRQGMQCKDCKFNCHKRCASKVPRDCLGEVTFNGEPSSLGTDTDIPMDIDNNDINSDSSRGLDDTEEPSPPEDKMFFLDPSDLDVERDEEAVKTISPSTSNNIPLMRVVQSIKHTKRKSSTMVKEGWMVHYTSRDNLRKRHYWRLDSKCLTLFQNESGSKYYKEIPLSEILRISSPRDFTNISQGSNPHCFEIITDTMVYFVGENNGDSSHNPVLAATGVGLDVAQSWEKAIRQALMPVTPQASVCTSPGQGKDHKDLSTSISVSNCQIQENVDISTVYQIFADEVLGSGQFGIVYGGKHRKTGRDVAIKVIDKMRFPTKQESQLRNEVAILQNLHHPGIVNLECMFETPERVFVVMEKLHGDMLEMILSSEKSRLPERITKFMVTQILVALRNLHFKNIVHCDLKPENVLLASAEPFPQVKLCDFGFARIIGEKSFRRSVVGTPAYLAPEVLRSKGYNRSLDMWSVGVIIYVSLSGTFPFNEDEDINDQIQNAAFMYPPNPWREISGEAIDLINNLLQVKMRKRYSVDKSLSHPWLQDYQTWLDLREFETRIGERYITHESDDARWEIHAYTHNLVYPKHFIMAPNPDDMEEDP

In test [12] the target is Dual specificity mitogen-activated protein kinase kinase 4 (Homo sapiens) (UniProt P45985).
The subject of test [13] is Tyrosine-protein kinase ABL1 (Homo sapiens), P00519 [Q252H].
The target in test [14] is Serine/threonine-protein kinase TNNI3K (Homo sapiens) (UniProt Q59H18).

Dual specificity mitogen-activated protein kinase kinase 4 (Homo sapiens), sequence (P45985 whole entry): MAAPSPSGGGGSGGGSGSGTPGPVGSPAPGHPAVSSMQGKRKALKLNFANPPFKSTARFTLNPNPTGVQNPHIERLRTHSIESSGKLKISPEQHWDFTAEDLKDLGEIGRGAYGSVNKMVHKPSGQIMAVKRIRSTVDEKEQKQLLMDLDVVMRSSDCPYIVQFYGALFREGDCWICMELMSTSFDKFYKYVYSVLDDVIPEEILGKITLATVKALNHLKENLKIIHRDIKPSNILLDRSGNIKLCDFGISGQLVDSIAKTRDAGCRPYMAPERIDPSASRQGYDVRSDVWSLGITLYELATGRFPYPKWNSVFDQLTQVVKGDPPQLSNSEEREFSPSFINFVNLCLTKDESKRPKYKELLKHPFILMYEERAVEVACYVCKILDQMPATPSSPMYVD
Fibroblast growth factor receptor 3 (Homo sapiens), P22607 [G697C], sequence (P22607 whole entry G697C): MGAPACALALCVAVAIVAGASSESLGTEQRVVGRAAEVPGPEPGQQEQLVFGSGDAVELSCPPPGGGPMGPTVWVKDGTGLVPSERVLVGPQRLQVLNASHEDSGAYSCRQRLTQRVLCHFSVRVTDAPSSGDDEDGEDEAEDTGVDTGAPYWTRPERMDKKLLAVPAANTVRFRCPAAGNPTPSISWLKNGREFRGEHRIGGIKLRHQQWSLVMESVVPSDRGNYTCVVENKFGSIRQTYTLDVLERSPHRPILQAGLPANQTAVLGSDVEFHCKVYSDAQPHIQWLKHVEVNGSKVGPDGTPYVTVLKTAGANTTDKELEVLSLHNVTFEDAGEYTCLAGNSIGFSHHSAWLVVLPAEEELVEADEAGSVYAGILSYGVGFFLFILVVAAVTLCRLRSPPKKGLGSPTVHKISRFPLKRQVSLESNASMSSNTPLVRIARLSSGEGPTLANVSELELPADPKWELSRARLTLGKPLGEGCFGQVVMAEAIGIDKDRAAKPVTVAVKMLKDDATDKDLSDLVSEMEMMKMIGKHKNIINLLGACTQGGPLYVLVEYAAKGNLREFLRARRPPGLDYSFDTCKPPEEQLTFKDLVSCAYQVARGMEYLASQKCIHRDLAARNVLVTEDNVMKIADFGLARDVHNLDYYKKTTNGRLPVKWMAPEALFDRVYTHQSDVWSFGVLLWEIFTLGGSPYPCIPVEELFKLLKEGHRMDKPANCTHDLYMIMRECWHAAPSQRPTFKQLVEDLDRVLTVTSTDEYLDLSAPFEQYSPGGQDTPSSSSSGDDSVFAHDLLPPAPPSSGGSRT
Myosin light chain kinase family member 4 (Homo sapiens), sequence (Q86YV6 whole entry): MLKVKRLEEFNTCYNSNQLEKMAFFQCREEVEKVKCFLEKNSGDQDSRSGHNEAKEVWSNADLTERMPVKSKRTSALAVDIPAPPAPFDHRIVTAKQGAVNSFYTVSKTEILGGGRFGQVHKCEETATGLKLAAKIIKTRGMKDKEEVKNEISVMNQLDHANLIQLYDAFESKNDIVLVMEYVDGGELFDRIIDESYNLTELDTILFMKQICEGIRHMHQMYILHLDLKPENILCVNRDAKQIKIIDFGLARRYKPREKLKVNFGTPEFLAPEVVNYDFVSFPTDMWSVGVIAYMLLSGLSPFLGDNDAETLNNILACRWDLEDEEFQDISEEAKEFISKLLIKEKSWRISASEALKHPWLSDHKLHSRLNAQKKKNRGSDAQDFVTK
Cyclin-dependent kinase 9 (Homo sapiens), sequence (P50750 whole entry): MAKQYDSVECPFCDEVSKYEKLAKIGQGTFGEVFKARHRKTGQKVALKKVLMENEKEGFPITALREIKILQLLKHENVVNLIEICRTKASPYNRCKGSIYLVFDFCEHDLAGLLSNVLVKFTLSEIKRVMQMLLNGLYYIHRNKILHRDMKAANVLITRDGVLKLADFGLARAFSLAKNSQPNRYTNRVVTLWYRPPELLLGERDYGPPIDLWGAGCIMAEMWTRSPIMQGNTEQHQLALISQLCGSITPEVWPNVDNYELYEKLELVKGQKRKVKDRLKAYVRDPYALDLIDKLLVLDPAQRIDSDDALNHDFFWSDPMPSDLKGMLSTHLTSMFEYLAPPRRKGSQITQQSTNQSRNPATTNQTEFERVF
Serine/threonine-protein kinase SIK2 (Homo sapiens), sequence (Q9H0K1 whole entry, looked up): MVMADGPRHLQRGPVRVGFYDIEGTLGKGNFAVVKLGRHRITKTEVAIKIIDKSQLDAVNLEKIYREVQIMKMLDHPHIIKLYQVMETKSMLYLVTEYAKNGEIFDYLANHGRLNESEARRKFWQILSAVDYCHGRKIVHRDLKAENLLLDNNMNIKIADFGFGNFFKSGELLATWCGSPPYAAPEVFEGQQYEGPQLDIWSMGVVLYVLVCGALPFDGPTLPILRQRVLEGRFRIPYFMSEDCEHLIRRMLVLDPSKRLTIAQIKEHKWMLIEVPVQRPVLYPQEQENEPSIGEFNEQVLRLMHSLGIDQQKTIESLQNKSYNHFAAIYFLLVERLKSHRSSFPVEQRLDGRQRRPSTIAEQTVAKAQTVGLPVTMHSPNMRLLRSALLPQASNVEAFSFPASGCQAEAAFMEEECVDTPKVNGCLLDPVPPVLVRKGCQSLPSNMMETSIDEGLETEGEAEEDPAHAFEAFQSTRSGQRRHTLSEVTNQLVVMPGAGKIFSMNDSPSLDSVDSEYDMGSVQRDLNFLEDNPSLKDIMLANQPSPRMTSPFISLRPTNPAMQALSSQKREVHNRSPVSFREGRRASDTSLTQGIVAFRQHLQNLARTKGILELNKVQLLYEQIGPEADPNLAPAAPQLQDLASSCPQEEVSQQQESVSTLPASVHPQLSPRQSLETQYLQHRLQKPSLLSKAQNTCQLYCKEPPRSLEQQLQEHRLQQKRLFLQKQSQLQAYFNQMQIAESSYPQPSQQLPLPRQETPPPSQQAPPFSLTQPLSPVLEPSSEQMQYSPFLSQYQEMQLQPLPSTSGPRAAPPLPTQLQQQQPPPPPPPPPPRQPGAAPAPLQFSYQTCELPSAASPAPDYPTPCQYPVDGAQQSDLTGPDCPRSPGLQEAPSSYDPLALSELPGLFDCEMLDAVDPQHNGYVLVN
Hormonally up-regulated neu tumor-associated kinase (Homo sapiens), sequence (P57058 whole entry): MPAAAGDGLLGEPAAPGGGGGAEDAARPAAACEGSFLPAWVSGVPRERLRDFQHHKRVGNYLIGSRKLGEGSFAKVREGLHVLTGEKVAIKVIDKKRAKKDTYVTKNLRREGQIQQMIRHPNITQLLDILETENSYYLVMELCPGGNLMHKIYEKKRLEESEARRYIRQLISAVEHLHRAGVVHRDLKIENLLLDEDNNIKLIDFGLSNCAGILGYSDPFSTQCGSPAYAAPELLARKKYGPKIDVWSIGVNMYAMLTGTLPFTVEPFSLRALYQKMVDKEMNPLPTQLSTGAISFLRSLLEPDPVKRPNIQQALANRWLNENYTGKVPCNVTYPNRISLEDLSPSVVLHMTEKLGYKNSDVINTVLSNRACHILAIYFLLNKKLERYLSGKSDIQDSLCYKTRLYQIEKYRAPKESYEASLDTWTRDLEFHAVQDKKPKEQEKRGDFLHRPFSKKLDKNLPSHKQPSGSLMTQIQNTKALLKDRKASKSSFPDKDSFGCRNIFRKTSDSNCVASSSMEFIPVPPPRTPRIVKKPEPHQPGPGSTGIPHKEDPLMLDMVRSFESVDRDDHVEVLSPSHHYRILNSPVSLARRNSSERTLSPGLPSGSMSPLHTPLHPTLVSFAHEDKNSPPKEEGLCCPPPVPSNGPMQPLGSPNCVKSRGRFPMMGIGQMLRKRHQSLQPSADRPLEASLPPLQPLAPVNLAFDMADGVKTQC
Serine/threonine-protein kinase OSR1 (Homo sapiens), sequence (O95747 2-527 limits assumed): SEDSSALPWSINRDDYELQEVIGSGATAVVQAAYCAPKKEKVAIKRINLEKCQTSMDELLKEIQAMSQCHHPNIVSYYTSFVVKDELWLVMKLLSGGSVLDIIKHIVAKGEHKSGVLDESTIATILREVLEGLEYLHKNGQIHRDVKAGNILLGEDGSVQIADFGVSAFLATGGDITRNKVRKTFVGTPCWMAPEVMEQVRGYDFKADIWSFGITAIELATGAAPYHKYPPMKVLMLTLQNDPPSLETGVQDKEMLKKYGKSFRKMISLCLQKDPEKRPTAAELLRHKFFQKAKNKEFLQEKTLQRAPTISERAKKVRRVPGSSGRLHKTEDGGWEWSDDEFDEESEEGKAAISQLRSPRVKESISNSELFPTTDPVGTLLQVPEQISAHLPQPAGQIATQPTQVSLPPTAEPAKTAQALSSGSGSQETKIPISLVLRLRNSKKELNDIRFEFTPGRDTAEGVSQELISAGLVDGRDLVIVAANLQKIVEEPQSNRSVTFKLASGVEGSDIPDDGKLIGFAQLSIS
RAF proto-oncogene serine/threonine-protein kinase (Homo sapiens), sequence (P04049 whole entry): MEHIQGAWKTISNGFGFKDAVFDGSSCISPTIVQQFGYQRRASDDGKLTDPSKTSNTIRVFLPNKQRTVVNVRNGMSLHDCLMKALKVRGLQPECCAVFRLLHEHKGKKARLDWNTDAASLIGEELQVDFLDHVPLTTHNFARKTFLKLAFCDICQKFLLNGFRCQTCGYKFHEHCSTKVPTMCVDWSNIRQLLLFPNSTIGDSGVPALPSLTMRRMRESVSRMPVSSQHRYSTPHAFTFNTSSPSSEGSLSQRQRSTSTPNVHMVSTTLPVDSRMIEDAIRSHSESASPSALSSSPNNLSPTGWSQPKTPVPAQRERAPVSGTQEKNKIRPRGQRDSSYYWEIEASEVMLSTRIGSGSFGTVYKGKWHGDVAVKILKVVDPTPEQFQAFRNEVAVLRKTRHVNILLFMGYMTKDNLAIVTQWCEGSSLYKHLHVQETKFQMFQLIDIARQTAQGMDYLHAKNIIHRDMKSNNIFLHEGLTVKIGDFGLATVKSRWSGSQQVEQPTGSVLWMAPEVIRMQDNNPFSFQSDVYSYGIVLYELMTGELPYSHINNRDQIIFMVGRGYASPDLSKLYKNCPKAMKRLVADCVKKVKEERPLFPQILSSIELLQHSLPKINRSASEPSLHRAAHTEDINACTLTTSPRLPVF

On to `Cc1nc(C2CCN(C(=O)c3ccc(OC(F)(F)F)cc3N)CC2)c2ncc(N3CCN(C)CC3)cc2n1` [BAY-693], for which the residual activity in [1] was 100%; in test [2] it was 100%; in test [3] it was 79%; in [4] it was 93%; in test [5], 49%; in test [6], 77%. Besides, the residual activity in [7] is 100%; in [8], 92%; in test [9], 100%; in [10], 100%; in [11], 100%; in [12], 100%. Moreover, the residual activity in [13] and in test [14] was 100% throughout.

As to `CN1CCN(c2cnc3c(C4CCN(C(=O)c5ccc(OC(F)(F)F)cc5N)CC4)ncnc3c2)CC1` [BAY-885], the residual activity is 100% in test [1]; 95% in test [2]; 100% in test [3]; 85% in test [4]; 100% in test [5]; 75% in [6]. The residual activity in [7] was 100%; in test [8], 86%; in [9], 100%; in test [10], 100%; in [11] it was 100%; in test [12], 100%. Further, the residual activity in test [13] and in test [14] was 100% throughout.
